Article PMC12102759 (Protein Science : A Publication of the Protein Society, 2025)

System: PABPC1 PABC
Assay type: binding, human
Details: DMS-BM library, bait PABPC1 PABC, row aa = residue at this position; for DMS-derived PSSM value (averaged), position T1 / DMS-derived PSSM value, position T3: T = wild type; for DMS-derived PSSM value (averaged), position A6 / DMS-derived PSSM value, position A6: A = wild type
[1] = prey ATXN2, TLNPNAKEFNPRSF(averaged) over the two overlapping peptides
[2] = prey ATXN2, TLNPNAKEFNPRSF(averaged) over the two overlapping peptides, N = wild type
[3] = prey ATXN2, peptide TLNPNAKEFNPRSFSQ, N = wild type
[4] = prey ATXN2, TLNPNAKEFNPRSF(averaged) over the two overlapping peptides, K = wild type
[5] = prey ATXN2, peptide KSTLNPNAKEFNPRSF, N = wild type
[6] = prey ATXN2, peptide KSTLNPNAKEFNPRSF
[7] = prey ATXN2, peptide TLNPNAKEFNPRSFSQ, P = wild type
[8] = prey ATXN2, peptide KSTLNPNAKEFNPRSF, L = wild type
[9] = prey ATXN2, peptide TLNPNAKEFNPRSFSQ, F = wild type
[10] = prey ATXN2, peptide TLNPNAKEFNPRSFSQ

## TLNPNAKEFNPRSF(averaged) T1V (VLNPNAKEFNPRSF)
[1]
  DMS-derived PSSM value (averaged), position T1: 0.1224

## TLNPNAKEFNPRSF(averaged) N5M (TLNPMAKEFNPRSF)
[2]
  DMS-derived PSSM value (averaged), position N5: 0.3686

## TLNPNAKEFNPRSFSQ R12S (TLNPNAKEFNPSSFSQ)
Prey ATXN2, peptide TLNPNAKEFNPRSFSQ, R = wild type
  DMS-derived PSSM value, position R12: 0.1947

## TLNPNAKEFNPRSFSQ S13G (TLNPNAKEFNPRGFSQ)
Prey ATXN2, peptide TLNPNAKEFNPRSFSQ, S = wild type
  DMS-derived PSSM value, position S13: 0.1675

## TLNPNAKEFNPRSFSQ N3R (TLRPNAKEFNPRSFSQ)
[3]
  DMS-derived PSSM value, position N3: 0.02401

## TLNPNAKEFNPRSF(averaged) N5P (TLNPPAKEFNPRSF)
[2]
  DMS-derived PSSM value (averaged), position N5: 4.119e-5

## KSTLNPNAKEFNPRSF S15L (KSTLNPNAKEFNPRLF)
Prey ATXN2, peptide KSTLNPNAKEFNPRSF, S = wild type
  DMS-derived PSSM value, position S15: 0.4164

## TLNPNAKEFNPRSFSQ L2H (THNPNAKEFNPRSFSQ)
Prey ATXN2, peptide TLNPNAKEFNPRSFSQ, L = wild type
  DMS-derived PSSM value, position L2: 0

## TLNPNAKEFNPRSF(averaged) F9Q (TLNPNAKEQNPRSF)
Prey ATXN2, TLNPNAKEFNPRSF(averaged) over the two overlapping peptides, F = wild type
  DMS-derived PSSM value (averaged), position F9: 0

## TLNPNAKEFNPRSF(averaged) K7D (TLNPNADEFNPRSF)
[4]
  DMS-derived PSSM value (averaged), position K7: 0.01005

## TLNPNAKEFNPRSF(averaged) E8G (TLNPNAKGFNPRSF)
Prey ATXN2, TLNPNAKEFNPRSF(averaged) over the two overlapping peptides, E = wild type
  DMS-derived PSSM value (averaged), position E8: 0

## KSTLNPNAKEFNPRSF N12T (KSTLNPNAKEFTPRSF)
[5]
  DMS-derived PSSM value, position N12: 0.02601

## TLNPNAKEFNPRSF(averaged) K7I (TLNPNAIEFNPRSF)
[4]
  DMS-derived PSSM value (averaged), position K7: 0.2038

## KSTLNPNAKEFNPRSF T3R (KSRLNPNAKEFNPRSF)
[6]
  DMS-derived PSSM value, position T3: 0

## TLNPNAKEFNPRSF(averaged) P4I (TLNINAKEFNPRSF)
Prey ATXN2, TLNPNAKEFNPRSF(averaged) over the two overlapping peptides, P = wild type
  DMS-derived PSSM value (averaged), position P4: 0.2825

## TLNPNAKEFNPRSF(averaged) T1K (KLNPNAKEFNPRSF)
[1]
  DMS-derived PSSM value (averaged), position T1: 0.01914

## TLNPNAKEFNPRSFSQ P4A (TLNANAKEFNPRSFSQ)
[7]
  DMS-derived PSSM value, position P4: 0.02051

## TLNPNAKEFNPRSF(averaged) A6M (TLNPNMKEFNPRSF)
[1]
  DMS-derived PSSM value (averaged), position A6: 0

## TLNPNAKEFNPRSFSQ P11G (TLNPNAKEFNGRSFSQ)
[7]
  DMS-derived PSSM value, position P11: 0.04287

## KSTLNPNAKEFNPRSF N12I (KSTLNPNAKEFIPRSF)
[5]
  DMS-derived PSSM value, position N12: 0.02863

## TLNPNAKEFNPRSFSQ N10A (TLNPNAKEFAPRSFSQ)
[3]
  DMS-derived PSSM value, position N10: 0.03895

## KSTLNPNAKEFNPRSF L4K (KSTKNPNAKEFNPRSF)
[8]
  DMS-derived PSSM value, position L4: 0

## TLNPNAKEFNPRSFSQ F9H (TLNPNAKEHNPRSFSQ)
[9]
  DMS-derived PSSM value, position F9: 0

## TLNPNAKEFNPRSFSQ A6H (TLNPNHKEFNPRSFSQ)
[10]
  DMS-derived PSSM value, position A6: 0

## KSTLNPNAKEFNPRSF K9R (KSTLNPNAREFNPRSF)
Prey ATXN2, peptide KSTLNPNAKEFNPRSF, K = wild type
  DMS-derived PSSM value, position K9: 0.0319

## TLNPNAKEFNPRSFSQ A6E (TLNPNEKEFNPRSFSQ)
[10]
  DMS-derived PSSM value, position A6: 0

## TLNPNAKEFNPRSF(averaged) A6F (TLNPNFKEFNPRSF)
[1]
  DMS-derived PSSM value (averaged), position A6: 0

## TLNPNAKEFNPRSFSQ K7I (TLNPNAIEFNPRSFSQ)
Prey ATXN2, peptide TLNPNAKEFNPRSFSQ, K = wild type
  DMS-derived PSSM value, position K7: 0.003703

## TLNPNAKEFNPRSFSQ F9M (TLNPNAKEMNPRSFSQ)
[9]
  DMS-derived PSSM value, position F9: 0

## KSTLNPNAKEFNPRSF T3F (KSFLNPNAKEFNPRSF)
[6]
  DMS-derived PSSM value, position T3: 0.07157

## KSTLNPNAKEFNPRSF P6F (KSTLNFNAKEFNPRSF)
Prey ATXN2, peptide KSTLNPNAKEFNPRSF, P = wild type
  DMS-derived PSSM value, position P6: 0

## TLNPNAKEFNPRSFSQ F14Q (TLNPNAKEFNPRSQSQ)
[9]
  DMS-derived PSSM value, position F14: 0.1174

## KSTLNPNAKEFNPRSF L4R (KSTRNPNAKEFNPRSF)
[8]
  DMS-derived PSSM value, position L4: 0

## TLNPNAKEFNPRSFSQ P11L (TLNPNAKEFNLRSFSQ)
[7]
  DMS-derived PSSM value, position P11: 0.02416
